# Target: T1, Human Cav2.2 channels (Homo sapiens, UniProt Q00975)
# T1 construct: expressed in transfected cells
# Assay: Fluorescent assay for Cav2.2 channels using potassium depolarization (Assay Example 1)
# Assay type: cell-based
# Conditions: pre-incubation potassium concentration not stated
# Excerpt: Assay Example 1: Fluorescent Assay for Cav2.2 Channels Using Potassium Depolarization to Initiate Channel Opening.
# Human Cav2.2 channels were stably expressed in KEK293 cells along with alpha2-delta and beta subunits of voltage-gated calcium channels. An inwardly rectifying potassium channel (Kir2.3) was also expressed in these cells to allow more precise control of the cell membrane potential by extracellular potassium concentration. At low bath potassium concentration, the membrane potential is relatively negative, and is depolarized as the bath potassium concentration is raised. In this way, the bath potassium concentration can be used to regulate the voltage-dependent conformations of the channels. Compounds are incubated with cells in the presence of low (4 mM) potassium or elevated (12, 25 or 30 mM) potassium to determine the affinity for compound block of resting (closed) channels at 4 mM potassium or affinity for block of open and inactivated channels at 12, 25 or 30 mM potassium. After the incubation period, Cav2.2 channel opening is triggered by addition of higher concentration of potassium (70 mM final concentration) to further depolarize the cell. The degree of state-dependent block can be estimated from the inhibitory potency of compounds after incubation in different potassium concentrations.
# Calcium influx through Cav2.2 channels is determined using a calcium-sensitive fluorescent dye in combination with a fluorescent plate reader. Fluorescent changes were measured with either a VIPR (Aurora Instruments) or FLIPR (Molecular Devices) plate reader.
# • 1. Seed cells in Poly-D-Lysine Coated 96- or 384-well plate and keep in a 37° C.-10% CO2 incubator overnight • 2. Remove media^1, wash cells with 0.2 ml (96-well plate) or 0.05 ml (384-well plate) Dulbecco's Phosphate Buffered Saline (D-PBS) with calcium & magnesium (Invitrogen; 14040) • 3. Add 0.1 ml (96-well plate) or 0.05 ml (384-well plate) of 4 μM fluo-4 (Molecular Probes; F-14202) and 0.02% Pluronic acid (Molecular Probes; P-3000) prepared in D-PBS with calcium & magnesium (Invitrogen; 14040) supplemented with 10 mM Glucose & 10 mM Hepes/NaOH; pH 7.4 • 4. Incubate in the dark at 25° C. for 60-70 min • 5. Remove dye^2, wash cells with 0.1 ml (96-well plate) or 0.06 ml (384-well plate) of 4, 12, 25, or 30 mM Potassium Pre-polarization Buffer. (PPB) • 6. Add 0.1 ml (96-well plate) or 0.03 ml (384-well plate) of 4, 12, 25, 30 mM PPB. with or without test compound • 7. Incubate in the dark at 25° C. for 30 min • 8. Read cell plate on VIPR instrument, Excitation=480 nm, Emission 535 nm • 9. With VIPR continuously reading, add 0.1 ml (96-well plate) or 0.03 ml (384-well plate) of Depolarization Buffer, which is 2× the final assay concentration, to the cell plate.
# T1 sequence (Q00975 whole entry): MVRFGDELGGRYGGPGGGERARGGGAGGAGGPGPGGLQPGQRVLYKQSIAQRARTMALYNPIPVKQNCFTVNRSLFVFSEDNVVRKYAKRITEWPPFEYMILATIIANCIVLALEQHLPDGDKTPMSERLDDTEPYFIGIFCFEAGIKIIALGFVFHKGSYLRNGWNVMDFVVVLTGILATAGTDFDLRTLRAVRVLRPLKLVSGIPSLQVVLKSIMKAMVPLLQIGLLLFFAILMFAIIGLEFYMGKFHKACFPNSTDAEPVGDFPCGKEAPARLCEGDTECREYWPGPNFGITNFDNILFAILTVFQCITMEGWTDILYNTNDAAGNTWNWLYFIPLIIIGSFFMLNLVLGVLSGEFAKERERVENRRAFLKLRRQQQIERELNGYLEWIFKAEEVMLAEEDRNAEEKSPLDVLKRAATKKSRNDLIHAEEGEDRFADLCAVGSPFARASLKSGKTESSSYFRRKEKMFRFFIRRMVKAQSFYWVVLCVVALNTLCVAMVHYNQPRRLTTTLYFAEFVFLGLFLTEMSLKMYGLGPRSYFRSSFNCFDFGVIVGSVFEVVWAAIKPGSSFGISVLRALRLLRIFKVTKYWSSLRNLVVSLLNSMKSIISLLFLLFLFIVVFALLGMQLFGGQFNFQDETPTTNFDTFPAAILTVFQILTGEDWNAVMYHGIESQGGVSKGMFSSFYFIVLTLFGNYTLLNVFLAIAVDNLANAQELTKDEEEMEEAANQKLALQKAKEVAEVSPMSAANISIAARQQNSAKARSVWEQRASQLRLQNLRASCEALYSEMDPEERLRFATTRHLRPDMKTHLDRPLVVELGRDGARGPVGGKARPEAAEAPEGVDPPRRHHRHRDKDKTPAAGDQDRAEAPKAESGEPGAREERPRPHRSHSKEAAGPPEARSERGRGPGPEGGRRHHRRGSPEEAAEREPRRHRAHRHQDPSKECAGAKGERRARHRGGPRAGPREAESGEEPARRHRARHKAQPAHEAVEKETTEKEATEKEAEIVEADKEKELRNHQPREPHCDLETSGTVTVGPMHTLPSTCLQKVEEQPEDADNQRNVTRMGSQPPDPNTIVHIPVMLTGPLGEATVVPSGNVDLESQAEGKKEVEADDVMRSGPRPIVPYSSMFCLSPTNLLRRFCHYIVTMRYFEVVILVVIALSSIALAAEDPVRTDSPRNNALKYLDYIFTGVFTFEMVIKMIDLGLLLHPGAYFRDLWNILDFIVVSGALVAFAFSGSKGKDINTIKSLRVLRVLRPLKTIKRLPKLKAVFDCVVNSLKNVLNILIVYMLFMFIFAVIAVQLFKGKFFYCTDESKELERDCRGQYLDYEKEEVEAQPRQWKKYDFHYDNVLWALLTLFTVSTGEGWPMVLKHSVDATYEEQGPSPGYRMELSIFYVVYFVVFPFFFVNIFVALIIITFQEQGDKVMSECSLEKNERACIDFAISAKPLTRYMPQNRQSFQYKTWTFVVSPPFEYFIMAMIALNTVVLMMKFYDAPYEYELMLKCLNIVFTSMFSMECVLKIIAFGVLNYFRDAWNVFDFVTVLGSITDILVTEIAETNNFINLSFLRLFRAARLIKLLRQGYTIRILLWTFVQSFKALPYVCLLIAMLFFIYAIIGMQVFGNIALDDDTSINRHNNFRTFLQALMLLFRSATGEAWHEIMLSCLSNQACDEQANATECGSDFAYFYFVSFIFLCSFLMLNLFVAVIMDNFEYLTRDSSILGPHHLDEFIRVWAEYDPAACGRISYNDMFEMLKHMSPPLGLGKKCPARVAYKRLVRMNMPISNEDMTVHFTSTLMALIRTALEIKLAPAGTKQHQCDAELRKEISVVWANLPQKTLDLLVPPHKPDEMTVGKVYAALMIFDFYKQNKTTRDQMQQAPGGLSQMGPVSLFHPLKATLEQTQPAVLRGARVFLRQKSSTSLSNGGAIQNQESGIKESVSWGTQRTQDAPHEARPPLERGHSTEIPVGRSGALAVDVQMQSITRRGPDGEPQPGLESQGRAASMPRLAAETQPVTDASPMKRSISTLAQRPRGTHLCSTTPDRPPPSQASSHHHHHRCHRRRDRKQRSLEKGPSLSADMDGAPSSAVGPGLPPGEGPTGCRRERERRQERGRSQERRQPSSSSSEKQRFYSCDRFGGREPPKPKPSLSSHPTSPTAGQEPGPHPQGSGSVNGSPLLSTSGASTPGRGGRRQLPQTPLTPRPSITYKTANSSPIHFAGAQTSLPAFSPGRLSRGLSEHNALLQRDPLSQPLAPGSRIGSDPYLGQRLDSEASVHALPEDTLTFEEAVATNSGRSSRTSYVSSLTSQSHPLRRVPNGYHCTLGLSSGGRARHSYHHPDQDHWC
row,IC50 [nM],SMILES
1,220,CC(C)(C1CCN(Cc2ccc(F)cc2)C(=O)C1)S(=O)(=O)c1cccc(C(F)(F)F)c1 (stereo not drawn)
2,360,CC(C)(C1CCN(c2ccccc2)C(=O)C1)S(=O)(=O)c1cccc(C(F)(F)F)c1 (stereo not drawn)
3,640,CC(C)([C@H]1CCN(c2ccc(C(F)(F)F)cn2)C(=O)C1)S(=O)(=O)c1cccc(C(F)(F)F)c1
4,280,CC(C)([C@@H]1CCN(c2ccc(C(F)(F)F)cn2)C(=O)C1)S(=O)(=O)c1cccc(C(F)(F)F)c1
5,890,CC(C)(C1CCC(=O)N(Cc2ccc(Cl)cc2)C1)S(=O)(=O)c1cccc(C(F)(F)F)c1 (stereo not drawn)
6,790,CC(C)(C1CC(=O)N(c2ccc(C(F)(F)F)cc2)C1)S(=O)(=O)c1cccc(C(F)(F)F)c1 (stereo not drawn)

# Source: US20110172236A1, “SUBSTITUTED ARYL SULFONE DERIVATIVES AS CALCIUM CHANNEL BLOCKERS” (priority 2008, published 2011)
